Data: patent US11478488B2, “Co-crystals of tramadol and coxibs” (ESTEVE PHARMACEUTICALS, S.A., priority 2009, dated 2022)
Like-named read-outs stand apart in the source and are kept apart here.

Experiments:
[1] = system: incision-induced thermal hyperalgesia in the incised rat hind paw; experiment: Thermal hyperalgesia (plantar test, Hargreaves) in paw incision postoperative pain model; type: in vivo, Wistar rats; details: for ED50: read-out: ED50 thermal hyperalgesia (after sigmoidal adjustment); for Efficacy on thermal hyperalgesia: rat paw incision, intraperitoneal dose response, FIG. 8
Experimental: (§1) Male, Wistar rats (120-160 g, Harlan, Italy) were housed in a climate-controlled room for at least 5 days prior to testing.
(§2) The dosing volume was 10 ml/kg. The antihyperalgesic or antiallodynic response of the animal was subsequently evaluated 60 min after drug administration.
(§3) Rats were anaesthetized with 3% isofluorane for veterinary use, employing an Ohmeda vaporizer and an anaesthesia chamber. Anaesthesia was kept during the surgical operation by a tube which directs the isoflurane vapours to the animal's snout. Once the rats were anaesthetised, they were laid down in a prone position and their right hindpaws were cleaned out with alcohol. Then, a 1 cm longitudinal incision was made with a number 23 scalpel, through skin and fascia of the plantar aspect of the paw, starting 0.5 cm from the proximal edge of the heel and extending toward the toes. Therefore, both superficial (skin) and deep (muscle) tissues and nerves were injured. Finally, the skin of the paw was stitched with a suturing stitch with breaded silk (3.0) and the wound was cleaned out with povidone.
(§4) The drugs were tested 4 hours after the surgery (plantar incision); 60 minutes after the administration of the product, two behavioural endpoints were evaluated: thermal hypersensitivity or hyperalgesia, and mechanical hypersensitivity or allodynia.
Animals were placed in the methacrylate cages of said apparatus, having a crystal floor. The acclimation period within the cages was about 10 minutes. The thermal stimulus came from a lamp moving below the crystal floor and which was applied to both paws, with a minimum interval of 1 minute between both stimulations in order to avoid learning behaviours. The rat is able to withdraw the paw freely when it feels discomfort (pain) produced by the heat coming from the lamp; then it is switched off and the latency time to the withdrawal response is recorded in seconds. In order to avoid hurting the animal's paw, the lamp was automatically switched off after 32 seconds.

[2] = system: motor behaviour of monoarthritic rats (carrageenan-induced gait changes); experiment: Pain-induced gait adaptation (CBMS) in carrageenan-induced acute monoarthritic model; details: intraperitoneal 4.5 h after carrageenan, measured 30 min after administration; co-crystal 20 mg/kg, single drugs at corresponding dose
Experimental: Movement-evoked pain was evaluated by a computerized behavioral monitoring system (CBMS).
The rat carrageenan model utilizes inflammation-associated pain following injection of the knee joint (monoarthritic model). […] The CBMS was used to assess gait related changes 5 hours after carrageenan injection and 30 min after drugs administration. […] Mechanical allodynia was measured with von Frey filaments 15 minutes after CBMS gait analysis.
Food and water were available ad libitum up to test time.
The dosing volume was 2 ml/kg. The drug response of the animal was subsequently evaluated 30 and 45 min after drug administration (for CBMS and von Frey respectively).
Joint inflammation was induced by carrageenan (Sigma Chemical, St. Louis, Mo.) injected percutaneously using a 30-gauge needle through the infrapatellar ligament into the right knee joint cavity (300 μg, 40 μl) with the animal under brief isoflurane (IsoFlo®, Abbott-Esteve, Barcelona, Spain) anaesthesia (3%).
Detailed analysis of gait was performed on walking rats using the CBMS method. Briefly, light from a fluorescent tube is sent through a glass plate. Light rays are completely reflected internally. As soon as anything, e.g. a rat's paw, is in contact with the glass surface, light is reflected downwards. It results in a sharp image of a bright paw print. The whole run is recorded via a camera placed under the glass plate. […]

[3] = system: incision-induced mechanical allodynia in the incised rat hind paw; experiment: Mechanical allodynia (von Frey filaments) in paw incision postoperative pain model; type: in vivo, Wistar rats; details: ip
Experimental: as §1, §2, §3, §4
Mechanical allodynia was tested using von Frey filaments. Animals were placed in methacrylate cylinders on an elevated surface, with metallic mesh floor perforated in order to apply the filaments. After an acclimation period of about 30 minutes within the cylinders, both hindpaws were stimulated (the injured and the non-injured paw, serving the latter as control), starting with the lowest force filament (0.4 g) and reaching up to a 15 g filament. The animal's response to pain was manifested by the withdrawal of the paw as a consequence of the painful stimulus caused by a filament. The pressure (force in grams) threshold eliciting the withdrawal of the paw was recorded.
Where it is established that Zmix<Zadd for a specific fixed-ratio, then that composition has a synergistic anti-hyperalgesic effect. Both ED50 mix and ED50 add values are random variables. ED50 mix is determined from the dose-response curve for a specific fixed-ratio of the components; ED50 add is calculated from the ED50 values for the individual drugs. Zmix is then compared to Zadd via a Student's t-test.

[4] = intraperitoneal single dose, 4 h after surgery, evaluated 60 min after administration, read-out: ED50 mechanical allodynia (after sigmoidal adjustment)
[5] = intraperitoneal, separate ED50 of single drugs for isobologram analysis, read-out: ED50 on mechanical allodynia as used in the isobologram (FIG. 7)

Compound	ED50 ([1]; Rattus norvegicus, ip)	Efficacy on thermal hyperalgesia [1]	Effect on carrageenan-induced gait changes (CBMS) [2]	ED50 [3, 4]	ED50 [3, 5]	Emax ([1]; Rattus norvegicus, ip, 1 h, read-out: Emax thermal hyperalgesia, rat paw incision, intraperitoneal, 60 min after administration)
COc1cccc(C2(O)CCCCC2CN(C)C)c1 (racemic) [Tramadol, 2-(dimethylaminomethyl)-1-(3-methoxyphenyl)cyclohexanol]	8.3 mg/kg	full efficacy	inhibited	5.41 mg/kg	5.28 mg/kg	
Cc1ccc(-c2cc(C(F)(F)F)nn2-c2ccc(S(N)(=O)=O)cc2)cc1 [Celecoxib, 4-[5-(4-methylphenyl)-3-(trifluoromethyl)-pyrazol-1-yl]benzenesulfonamide]	2.35 mg/kg	only a partial response	inhibited	3.03 mg/kg	3.01 mg/kg	45%
